According to patent publication US5990118A, “Purine compounds and xanthine oxidase inhibitors” (Yamasa Corporation, priority 1995, dated 1999):

Molecular target: T1, bovine-milk-derived xanthine oxidase (XOD) (Bos taurus, UniProt P80457)
T1 construct: from tissue; host or cells: bovine milk
Experiment: Xanthine oxidase inhibitory activity (inhibition of uricogenesis from xanthine, absorbance at 292 nm)
Assay type: biochemical
Conditions: xanthine 100 μM, XOD 10 mU/ml, 50 mM phosphate buffer pH 7.4, 15 minutes, room temperature
Method: Test Example: Xanthine oxidase inhibitory activity
Xanthine (100 μM), bovine-milk-derived xanthine oxidase (XOD) (10 mU/ml), and a test compound were mixed in 50 mM phosphate buffer (pH 7.4), and the mixture was incubated for 15 minutes at room temperature. Transformation of xanthine into uric acid was measured as the change in absorbance (O.D.) at 292 nm, to thereby investigate the inhibitory effect of the test compound against uricogenesis.
The inhibition ratio against uricogenesis was calculated from the following equation, and a dose-response curve of each compound was obtained.
Inhibition ratio against uricogenesis (%)=100-[(D-DB)/T]×100
T: O.D. of a solution of "xanthine+XOD"
D: O.D. of a solution of "test compound+xanthine+XOD"
DB: O.D. of a solution of "test compound+XOD"

T1 sequence (P80457 whole entry): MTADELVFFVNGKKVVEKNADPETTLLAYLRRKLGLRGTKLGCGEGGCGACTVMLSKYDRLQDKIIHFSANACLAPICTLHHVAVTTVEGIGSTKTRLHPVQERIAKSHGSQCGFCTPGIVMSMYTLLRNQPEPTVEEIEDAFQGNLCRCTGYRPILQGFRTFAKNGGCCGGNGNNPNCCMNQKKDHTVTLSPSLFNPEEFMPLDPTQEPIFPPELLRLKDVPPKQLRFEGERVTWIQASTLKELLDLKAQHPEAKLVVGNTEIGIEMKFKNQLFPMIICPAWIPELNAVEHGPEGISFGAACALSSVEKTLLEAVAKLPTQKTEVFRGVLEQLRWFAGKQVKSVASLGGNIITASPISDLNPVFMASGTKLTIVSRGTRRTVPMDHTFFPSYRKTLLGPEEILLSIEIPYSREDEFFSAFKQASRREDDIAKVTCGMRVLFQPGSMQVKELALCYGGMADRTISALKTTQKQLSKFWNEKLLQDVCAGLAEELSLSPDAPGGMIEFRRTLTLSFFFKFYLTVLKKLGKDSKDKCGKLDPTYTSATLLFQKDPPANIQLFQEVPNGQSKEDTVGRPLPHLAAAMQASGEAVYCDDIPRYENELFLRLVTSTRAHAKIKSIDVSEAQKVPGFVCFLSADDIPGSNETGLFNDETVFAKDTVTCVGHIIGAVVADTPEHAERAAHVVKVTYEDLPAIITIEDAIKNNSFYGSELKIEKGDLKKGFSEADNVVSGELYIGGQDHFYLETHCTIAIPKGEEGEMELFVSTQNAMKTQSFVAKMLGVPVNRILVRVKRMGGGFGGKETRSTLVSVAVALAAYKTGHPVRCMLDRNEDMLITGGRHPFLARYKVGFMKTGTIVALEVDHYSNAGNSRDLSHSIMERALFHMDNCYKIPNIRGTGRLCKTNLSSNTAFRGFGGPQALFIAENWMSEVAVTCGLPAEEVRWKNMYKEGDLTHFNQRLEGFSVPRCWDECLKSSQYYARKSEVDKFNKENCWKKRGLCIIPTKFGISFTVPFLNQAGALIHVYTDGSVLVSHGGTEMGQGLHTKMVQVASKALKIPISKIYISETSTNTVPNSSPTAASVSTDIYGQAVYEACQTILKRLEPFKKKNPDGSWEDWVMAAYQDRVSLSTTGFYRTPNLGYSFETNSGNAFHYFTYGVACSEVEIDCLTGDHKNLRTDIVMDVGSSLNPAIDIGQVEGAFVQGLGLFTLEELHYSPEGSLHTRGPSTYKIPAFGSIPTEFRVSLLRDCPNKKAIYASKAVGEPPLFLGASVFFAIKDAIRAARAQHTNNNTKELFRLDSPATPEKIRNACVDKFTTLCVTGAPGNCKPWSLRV

| SMILES | IC50 |
| --- | --- |
| Clc1nc(NN=Cc2ccccc2)c2nc[nH]c2n1 [Compound 3b, 6-benzylidenehydrazino-2-chloro-9H-purine] | 2.71 µM |
| Fc1ccc(C=NNc2nc(Cl)nc3[nH]cnc23)cc1 [Compound 3c, 2-chloro-6-p-fluorobenzylidenehydrazino-9H-purine] | 1.96 µM |
| Clc1ccc(C=NNc2nc(Cl)nc3[nH]cnc23)cc1 [Compound 3d, 2-chloro-6-p-chlorobenzylidenehydrazino-9H-purine] | 0.927 µM |
| COc1ccc(C=NNc2nc(Cl)nc3[nH]cnc23)cc1 [Compound 3e, 2-chloro-6-p-methoxybenzylidenehydrazino-9H-purine] | 0.801 µM |
| CN(C)c1ccc(C=NNc2nc(Cl)nc3[nH]cnc23)cc1 [Compound 3f, 2-chloro-6-p-N,N-dimethylaminobenzylidenehydrazino-9H-purine] | 2.32 µM |
| Clc1nc(NN=Cc2ccc3c(c2)OCO3)c2nc[nH]c2n1 [Compound 3g, 2-chloro-6-(3,4-methylenedioxybenzylidenehydrazino)-9H-purine] | 1.15 µM |
| Oc1ccc(C=NNc2nc(Cl)nc3[nH]cnc23)cc1 [Compound 3i, 2-chloro-6-p-hydroxybenzylidenehydrazino-9H-purine] | 0.764 µM |
| Cc1nnc2c3nc[nH]c3[nH]c(=S)n12 [Compound 5b, 3-methyl-7H-[1,2,4]triazolo[3,4-i]purine-5(6H)-thione] | 7.91 µM |
| S=c1[nH]c2[nH]cnc2c2nnc(-c3ccccc3)n12 [Compound 5c, 3-phenyl-7H-[1,2,4]triazolo[3,4-i]purine-5(6H)-thione] | 2.95 µM |
| COc1ccc(-c2nnc3c4nc[nH]c4[nH]c(=S)n23)cc1 [Compound 5d, 3-p-methoxyphenyl-7H-[1,2,4]triazolo[3,4-i]purine-5(6H)-thione] | 3.02 µM |
| O=c1[nH]c2[nH]cnc2c2nnc(-c3ccccc3)n12 [Compound 11c, 3-phenyl-7H-[1,2,4]triazolo[3,4-i]purine-5(6H)-one] | 2.57 µM |
| O=c1[nH]c2[nH]cnc2c2nnc(-c3ccc(Cl)cc3)n12 [Compound 11e, 3-p-chlorophenyl-7H-[1,2,4]triazolo[3,4-i]purine-5(6H)-one] | 0.156 µM |
| Fc1ccc(C=NNc2nc(=S)[nH]c3[nH]cnc23)cc1 [Compound 17a, 6-p-fluorobenzylidenehydrazino-9H-purine-2(3H)-thione] | 0.336 µM |
| CN(C)c1ccc(C=NNc2nc(=S)[nH]c3[nH]cnc23)cc1 [Compound 17b, 6-p-N,N-dimethylaminobenzylidenehydrazino-9H-purine-2(3H)-thione] | 0.865 µM |
| O=[N+]([O-])c1ccc(C=NNc2nc(=S)[nH]c3[nH]cnc23)cc1 [Compound 17c, 6-p-nitrobenzylidenehydrazino-9H-purine-2(3H)-thione] | 1.18 µM |
| COc1ccc(C=NNc2nc(=S)[nH]c3[nH]cnc23)cc1 [Compound 17d, 6-p-methoxybenzylidenehydrazino-9H-purine-2(3H)-thione] | 0.969 µM |
| S=c1nc(NN=Cc2ccc3c(c2)OCO3)c2nc[nH]c2[nH]1 [Compound 17e, 6-(3,4-methylenedioxybenzylidenehydrazino)-9H-purine-2(3H)-thione] | 0.235 µM |
| COc1ccc(C=NN(C)c2nc(=S)[nH]c3[nH]cnc23)cc1 [Compound 19a, 6-[2-(4-methoxybenzylidene)-1-methylhydrazino]-9H-purine-2(3H)-thione] | 0.681 µM |
| CN(N=Cc1ccc(F)cc1)c1nc(=S)[nH]c2[nH]cnc12 [Compound 19b, 6-[2-(4-fluorobenzylidene)-1-methylhydrazino]-9H-purine-2(3H)-thione] | 0.667 µM |
